From patent publication US20260137662A1, “CD11B AGONISTS FOR TREATMENT OF AUTOIMMUNE DISEASE” (Rush University Medical Center, priority 2022, published 2026)

Test system: NFkB pathway
Assay: Gene expression in RAW 264.7 myeloid cells with NFkB inhibitor
Assay type: cell-based, murine
Conditions: presence of NFkB inhibitor; LPS-treated cells, 8 hours
Protocol: FIG. 6A illustrates gene expression of PLAUR in myeloid cells treated with NFkB inhibitor BMS 345541 and then subsequently treated for 8 hours with LA 1(20 uM), LPS (12.5, 25, 50, 100, or 250 ng/ml), or LPS and LA1 co-treatment (L+L).
FIG. 6B illustrates gene expression of NLRP3 in myeloid cells treated with NFkB inhibitor BMS 345541 and then subsequently treated for 8 hours with LA 1(20 uM), LPS (12.5, 25, 50, 100, or 250 ng/ml), or LPS and LA1 co-treatment (L+L).
FIG. 6C illustrates gene expression of and IL-6 in myeloid cells treated with NFkB inhibitor BMS 345541 and then subsequently treated for 8 hours with LA 1(20 uM), LPS (12.5, 25, 50, 100, or 250 ng/ml), or LPS and LA1 co-treatment (L+L).
In order to determine potential molecular mechanisms resulting in uPAR expression, the association between uPAR/suPAR and other inflammatory cytokines and the NFkB pathway were investigated. uPAR expression levels in RAW 264.7 myeloid cells were evaluated in the absence or presence of a known NFkB inhibitor, BMS 345541.

Compound: Cc1ccc2nc(NCCN)c3ncc(C)n3c2c1 [BMS 345541]
- expression levels of IL-6: reduced
- expression levels of NLRP3: reduced
- relative gene expression of PLAUR (uPAR): reduced relative gene expression
